Results taken from the supplement of paper PMC10307832.

How the values were obtained:
Assay in all cases: relative viability (nuclei count vs DMSO), 5 days (fraction); higher = more cells survive
[1] = compound: C1/C(=C\C2=CC=CS2)/C(=O)/C(=C/C3=CC=CS3)/C1 + N=C(N)NC(=N)NCCc1ccccc1 [Phenformin] (partner 250 µM)
Outline: (§1)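 Relative viability divides the nuclei count in treated wells by that in vehicle wells. Lung cancer cell lines were seeded in 1536-well plates, dosed by pin tool the next day, and fixed and stained after 5 days in one step with final 0.05% Triton X-100, 1% formaldehyde and 1 ug/ml Hoechst. Dosing was a single drug or a fixed anchor-drug dose plus five library-drug doses (not always all listed) in √10 steps, and values are medians of duplicate plates imaged at 4×.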

TPCA-1 + Crizotinib = compound: C1=CC(=CC=C1C2=CC(=C(S2)NC(=O)N)C(=O)N)F [TPCA-1] + C[C@@H](Oc1cc(-c2cnn(C3CCNCC3)c2)cnc1N)c1c(Cl)ccc(F)c1Cl [Crizotinib] (partner 1 µM)
Outline: as §1

TPCA-1 + Phenformin = compound: C1=CC(=CC=C1C2=CC(=C(S2)NC(=O)N)C(=O)N)F [TPCA-1] + N=C(N)NC(=N)NCCc1ccccc1 [Phenformin] (partner 250 µM)
Outline: as §1

[2] = compound: C[C@]12O[C@H](C[C@]1(O)CO)n1c3ccccc3c3c4c(c5c6ccccc6n2c5c31)CNC4=O [Lestaurtinib] + Cc1cc(Nc2cc(N3CCN(C)CC3)nc(Sc3ccc(NC(=O)C4CC4)cc3)n2)n[nH]1 [Tozasertib] (partner 0.1 µM)
Outline: as §1

Cell Line	relative viability ([1]; first compound 0.2 µM)	relative viability ([1]; first compound 0.6325 µM)	relative viability ([1]; first compound 2 µM)	relative viability ([1]; first compound 6.325 µM)	relative viability ([1]; first compound 20 µM)	relative viability (TPCA-1 + Crizotinib; first compound 0.04 µM)	relative viability (TPCA-1 + Crizotinib; first compound 0.1265 µM)	relative viability (TPCA-1 + Crizotinib; first compound 0.4 µM)	relative viability (TPCA-1 + Crizotinib; first compound 1.265 µM)	relative viability (TPCA-1 + Crizotinib; first compound 4 µM)	relative viability (TPCA-1 + Phenformin; first compound 0.04 µM)	relative viability (TPCA-1 + Phenformin; first compound 0.1265 µM)	relative viability (TPCA-1 + Phenformin; first compound 0.4 µM)	relative viability (TPCA-1 + Phenformin; first compound 1.265 µM)	relative viability (TPCA-1 + Phenformin; first compound 4 µM)	relative viability ([2]; first compound 0.005 µM)	relative viability ([2]; first compound 0.01581 µM)	relative viability ([2]; first compound 0.05 µM)	relative viability ([2]; first compound 0.1581 µM)	relative viability ([2]; first compound 0.5 µM)
PC-14	0.823	0.762	0.611	0.539	0.631	0.818	0.864	0.891	0.832	0.615	0.575	0.492	0.717	0.508	0.568	0.639	0.668	0.674	0.546	0.163
NCI-H1650	0.495	0.434	0.426	0.391	0.467	1.18	0.92	1.04	1.09	0.891	0.452	–	0.487	0.469	0.386	0.469	0.526	0.343	0.371	0.313
NCI-H727	0.64	0.642	0.671	0.525	0.494	0.82	0.677	1.05	0.64	0.706	0.673	0.417	0.488	0.389	0.479	0.598	0.728	0.63	0.584	0.41
COR-L23	0.458	0.465	0.376	0.433	0.476	0.686	0.666	0.715	0.532	0.323	0.483	0.47	0.436	0.415	0.328	0.197	0.229	0.184	0.174	0.184
ChaGo-K-1	0.517	0.493	0.459	0.3	0.271	1.2	1.04	1.17	0.836	0.608	0.524	0.472	0.54	0.48	0.259	0.221	0.254	0.243	0.231	0.215
HOP-62	0.686	0.714	0.531	0.664	0.672	0.974	0.865	0.974	1.05	0.641	0.692	0.64	0.684	0.603	0.485	0.35	0.43	0.396	0.356	0.234
NCI-H1915	0.365	0.378	0.362	0.205	0.37	0.906	0.884	0.915	0.857	0.72	0.403	0.362	0.385	0.321	0.289	0.498	0.532	0.363	0.49	0.214
BEN	0.268	0.293	0.285	0.214	0.257	0.81	0.722	0.713	0.979	0.685	0.304	0.262	0.255	0.254	0.249	0.561	0.53	0.428	0.377	0.217
NCI-H1437	0.294	0.281	0.402	0.26	0.318	0.941	0.892	0.892	0.872	0.834	0.336	0.297	0.277	0.297	0.299	0.451	0.438	0.373	0.309	0.408
EMC-BAC-2	0.549	0.513	0.558	0.521	0.521	0.737	0.836	0.788	0.755	0.663	0.604	0.476	0.571	0.4	0.247	0.279	0.206	0.283	0.22	0.183
NCI-H647	0.55	0.505	0.579	0.474	0.485	1.24	1.08	1.13	0.882	0.215	0.557	0.484	0.614	0.38	0.151	0.375	0.328	0.188	0.124	0.126
LXF-289	0.553	0.536	0.554	0.459	0.513	0.84	0.785	0.794	0.806	0.537	0.551	0.489	0.532	0.447	0.308	0.229	0.206	0.194	0.203	0.141
LOU-NH91	0.696	0.757	0.843	0.67	0.736	0.724	0.736	0.726	0.731	0.656	0.712	0.677	0.73	0.599	0.664	0.61	0.602	0.628	0.496	0.295
NCI-H23	0.775	0.863	0.828	0.78	0.699	0.582	0.503	0.515	0.441	0.341	0.813	0.764	0.759	0.681	0.353	0.492	0.343	0.3	0.439	0.237
NCI-H1993	0.514	0.518	0.494	0.42	0.517	0.868	–	1.02	0.851	0.849	0.425	0.536	0.55	0.421	0.485	0.636	0.545	0.57	0.54	0.529
HCC-827	0.426	0.414	0.433	0.411	0.388	0.948	0.924	0.899	0.83	0.567	0.384	0.385	0.404	0.367	0.353	0.492	0.405	0.396	0.348	0.217
